Reference: patent US9615572B1, “Disinfectant spray comprising copper iodide” (PEN Inc., priority 2014, dated 2017)

Tested on: feline calcivirus ATCC VR-782
Conditions: 20 mg/L in a water based solution applied to a surface; 10 minutes exposure; non-enveloped virus
Method: Copper ions (20 mg/L) in a water based solution were applied to a surface with the non-enveloped feline calcivirus ATCC VR-782. […] In our case we wanted to have an idea about the rate of killing and this is why we limited the test to 10 minutes.

copper iodide
reduction relative to the control: 82.22%
